Measured values reported in ChEMBL document CHEMBL4028802, “DILIrank: the largest reference drug list ranked by the risk for developing drug-induced liver injury in humans” (Drug Discov Today, 2016).
Starred links: 1 amine or outer side, 2 acyl side, 3 side chain; linkers in the order of their positions; H or OH if unused. Positions of bridges follow the written chain, without caps; N, C: chain ends. Non-standard residues stand in square brackets, D forms with d. Residues, ends and D or L forms follow the SMILES beside them. *: point of attachment. hTyr(3S-OH,4S-OH,3'-OSO3H) = N[C@H](C(=O)O)[C@H](O)[C@@H](O)c1ccc(O)c(OS(=O)(=O)O)c1; Orn(4R-OH,5R-OH) = O=C([C@H](C[C@@H](O)[C@@H](O)N[*:3])N[*:1])[*:2]; Pro(3S-OH,4S-Me) = C[C@H]1CN[C@H](C(=O)O)[C@H]1O; X1 = CCCCCOc1ccc(-c2cc(-c3ccc(C(=O)*)cc3)no2)cc1; Gln(3R-OH) = NC(=O)C[C@@H](O)[C@H](N)C(=O)O; Hyp = O=C(O)[C@@H]1C[C@@H](O)CN1

Legend:
Homo sapiens [1] = species on record: Homo sapiens; experiment: Liver toxicity in human assessed as induction of drug-induced liver injury by measuring severity class index
Homo sapiens [2] = species on record: Homo sapiens; experiment: Liver toxicity in human assessed as induction of drug-induced liver injury by measuring verified drug-induced liver injury concern status
Throughout, for DILI severity class: key of the grades not given here.

Structure (SMILES) | DILI_severity_class (Homo sapiens [1]) | DILI_Concern (Homo sapiens [2])
C[C@@H](O)[C@H]1C(=O)N2C(C(=O)O)=C(S[C@@H]3CN[C@H](C(=O)N(C)C)C3)[C@H](C)[C@H]12 [MEROPENEM] | 3 | Less-Dili-Concern
Nc1ccc(O)c(C(=O)O)c1 [MESALAMINE] | 7 | Less-Dili-Concern
O=S(=O)([O-])CCS.[Na+] [MESNA] | 3 | Ambiguous-Dili-Concern
CN1CCCCC1CCN1c2ccccc2Sc2ccc([S+](C)[O-])cc21 (stereo not drawn) [MESORIDAZINE] | 5 | Ambiguous-Dili-Concern
CC(C)NCC(O)c1cc(O)cc(O)c1 (stereo not drawn) [METAPROTERENOL] | 0 | No-Dili-Concern
Cc1cc(C)cc(OCC2CNC(=O)O2)c1 (stereo not drawn) [METAXALONE] | 5 | Less-Dili-Concern
CN(C)C(=N)N=C(N)N [METFORMIN] | 0 | Less-Dili-Concern
CCC(=O)C(CC(C)N(C)C)(c1ccccc1)c1ccccc1 (stereo not drawn) [METHADONE] | 3 | Ambiguous-Dili-Concern
CN[C@@H](C)Cc1ccccc1 [METHAMPHETAMINE] | 0 | No-Dili-Concern
CC(=O)/N=c1/sc(S(N)(=O)=O)nn1C [METHAZOLAMIDE] | 7 | Less-Dili-Concern
C1N2CN3CN1CN(C2)C3.O=C(O)CNC(=O)c1ccccc1 [METHENAMINE HIPPURATE] | 3 | Ambiguous-Dili-Concern
CSCC[C@H](N)C(=O)O [METHIONINE] | 0 | No-Dili-Concern
COc1ccccc1OCC(O)COC(N)=O (stereo not drawn) [METHOCARBAMOL] | 5 | Ambiguous-Dili-Concern
C=CCC1(C(C)C#CCC)C(=O)N=C(O)N(C)C1=O (stereo not drawn) [METHOHEXITAL] | 3 | Ambiguous-Dili-Concern
CN(Cc1cnc2nc(N)nc(N)c2n1)c1ccc(C(=O)N[C@@H](CCC(=O)O)C(=O)O)cc1 [METHOTREXATE] | 3 | Most-Dili-Concern
COc1c2occc2cc2ccc(=O)oc12 [METHOXSALEN] | 3 | Less-Dili-Concern
C[N+]1(C)[C@@H]2C[C@@H](OC(=O)[C@H](CO)c3ccccc3)C[C@H]1[C@@H]1O[C@@H]12.[Br-] [METHSCOPOLAMINE BROMIDE] | 0 | No-Dili-Concern
CN1C(=O)CC(C)(c2ccccc2)C1=O (stereo not drawn) [METHSUXIMIDE] | 0 | No-Dili-Concern
CN1C(CCl)Nc2cc(Cl)c(S(N)(=O)=O)cc2S1(=O)=O (stereo not drawn) [METHYCLOTHIAZIDE] | 2 | Ambiguous-Dili-Concern
C[C@](N)(Cc1ccc(O)c(O)c1)C(=O)O [METHYLDOPA] | 8 | Most-Dili-Concern
CC[C@@H](CO)NC(=O)[C@@H]1C=C2c3cccc4[nH]cc(c34)C[C@H]2N(C)C1 [METHYLERGONOVINE] | 0 | No-Dili-Concern
C[N+]1(CC2CC2)CC[C@]23c4c5ccc(O)c4O[C@H]2C(=O)CC[C@@]3(O)[C@H]1C5.[Br-] (stereo partly drawn) [METHYLNALTREXONE BROMIDE] | 0 | No-Dili-Concern

Structure (SMILES) | DILI_severity_class (Homo sapiens [1]) | DILI_Concern (Homo sapiens [2])
COC(=O)C(c1ccccc1)C1CCCCN1 (stereo not drawn) [METHYLPHENIDATE] | 3 | Less-Dili-Concern
C[C@H]1C[C@@H]2[C@H]([C@@H](O)C[C@@]3(C)[C@H]2CC[C@]3(O)C(=O)CO)[C@@]2(C)C=CC(=O)C=C12 [METHYLPREDNISOLONE] | 3 | Less-Dili-Concern
C[C@]12CCC(=O)C=C1CC[C@@H]1[C@@H]2CC[C@@]2(C)[C@H]1CC[C@]2(C)O [METHYLTESTOSTERONE] | 2 | Less-Dili-Concern
CC[C@@H](CO)NC(=O)[C@@H]1C=C2c3cccc4c3c(cn4C)C[C@H]2N(C)C1 [METHYSERGIDE] | 0 | No-Dili-Concern
CCN(CC)CCNC(=O)c1cc(Cl)c(N)cc1OC [METOCLOPRAMIDE] | 5 | Less-Dili-Concern
Cc1ccccc1N1C(=O)c2cc(S(N)(=O)=O)c(Cl)cc2NC1C (stereo not drawn) [METOLAZONE] | 3 | Ambiguous-Dili-Concern
COCCc1ccc(OCC(O)CNC(C)C)cc1.COCCc1ccc(OCC(O)CNC(C)C)cc1.O=C(O)CCC(=O)O (stereo not drawn) [METOPROLOL SUCCINATE] | 3 | Ambiguous-Dili-Concern
COCCc1ccc(OCC(O)CNC(C)C)cc1 (stereo not drawn) [METOPROLOL] | 5 | Less-Dili-Concern
Cc1ncc([N+](=O)[O-])n1CCO [METRONIDAZOLE] | 3 | Less-Dili-Concern
CC(C)(C(=O)c1cccnc1)c1cccnc1 [METYRAPONE] | 0 | No-Dili-Concern
C[C@](N)(Cc1ccc(O)cc1)C(=O)O [METYROSINE] | 0 | No-Dili-Concern
Cc1cccc(C)c1OCC(C)N (stereo not drawn) [MEXILETINE] | 3 | Most-Dili-Concern
CCCCCOc1ccc(-c2cc(-c3ccc(C(=O)N[C@H]4C[C@@H](O)[C@@H](O)NC(=O)[C@@H]5[C@@H](O)[C@@H](C)CN5C(=O)[C@H]([C@H](O)CC(N)=O)NC(=O)[C@H]([C@H](O)[C@@H](O)c5ccc(O)c(OS(=O)(=O)O)c5)NC(=O)[C@@H]5C[C@@H](O)CN5C(=O)[C@H]([C@@H](C)O)NC4=O)cc3)no2)cc1 [MICAFUNGIN] (X1-[Orn(4R-OH,5R-OH)]T[Hyp][hTyr(3S-OH,4S-OH,3'-OSO3H)][Gln(3R-OH)][Pro(3S-OH,4S-Me)]; lactam 1-C) | 7 | Most-Dili-Concern
Cc1ncc2n1-c1ccc(Cl)cc1C(c1ccccc1F)=NC2 [MIDAZOLAM] | 0 | No-Dili-Concern
COc1ccc(OC)c(C(O)CNC(=O)CN)c1 (stereo not drawn) [MIDODRINE] | 0 | No-Dili-Concern
CC#C[C@]1(O)CC[C@H]2[C@@H]3CCC4=CC(=O)CCC4=C3[C@@H](c3ccc(N(C)C)cc3)C[C@@]21C [MIFEPRISTONE] | 0 | No-Dili-Concern
OCCN1C[C@H](O)[C@@H](O)[C@H](O)[C@H]1CO [MIGLITOL] | 0 | No-Dili-Concern
Cc1[nH]c(=O)c(C#N)cc1-c1ccncc1 [MILRINONE] | 3 | Ambiguous-Dili-Concern
CN(C)c1ccc(O)c2c1C[C@H]1C[C@H]3[C@H](N(C)C)C(O)=C(C(N)=O)C(=O)[C@@]3(O)C(O)=C1C2=O [MINOCYCLINE] | 8 | Most-Dili-Concern
Nc1cc(N2CCCCC2)nc(N)[n+]1[O-] [MINOXIDIL] | 0 | No-Dili-Concern
CN1CCN2c3ncccc3Cc3ccccc3C2C1 (stereo not drawn) [MIRTAZAPINE] | 3 | Less-Dili-Concern
Clc1ccc(C(c2ccccc2Cl)C(Cl)Cl)cc1 (stereo not drawn) [MITOTANE] | 0 | No-Dili-Concern
